Experimental data from patent publication US12209096B2, “Compounds and compositions for inducing chondrogenesis” (NOVARTIS AG, priority 2017, dated 2025).

System: NHACs
Assay: calcium flux assay
Assay type: cell-based, human
Settings: Homo sapiens; for Emax: read-out: (A) % Efficacy
Experimental: NHACs were plated in 1536 Greiner plate at 2000 cells/well in 4 ul volume. 24 hours later, 4 ul of Calcium 5 dye solution (Hank's Balanced Salt/HEPES buffer containing 5 mM of Probenecid) was then added and incubated for 1 hour at room temperature. Fluorescence readings at excitation wavelength of 470-495 nm and emission wavelength of 515-575 nm were done using FLIPR high-throughput screening system (Molecular Devices, Sunnyvale, CA). The test compound was then added to each well at the indicated dose. Signal was measured prior compound dispense and after using a first interval of 1 second for 60 reads and second interval of 3 second for 20 reads. Data was analyzed using Molecular Devices ScreenWorks® Software.

Row | EC50 [µM] | Structure (SMILES) | Emax [%]
1 | 25 | O=C(Nc1cnc(Cl)c(Cl)c1)[C@@H]1[C@@H](c2ccnc(F)c2)[C@H]2O[C@@H]1C[C@H]2NCCO [Example 176, (1R,2R,3S,4R,5R)—N-(5,6-dichloropyridin-3-yl)-3-(2-fluoropyridin-4-yl)-5-((2-hydroxyethyl)amino)-7-oxabicyclo[2.2.1]heptane-2-carboxamide] | 51
2 | > 50 | COc1ccc(NC(=O)[C@@H]2[C@@H]3O[C@@H]([C@H]4C[C@H]43)[C@@H]2c2cccc(C(F)(F)F)n2)cn1 [Example 35, (1S,2S,4R,5R,6S,7S)—N-(6-methoxypyridin-3-yl)-7-(6-(trifluoromethyl)pyridin-2-yl)-8-oxatricyclo[3.2.1.0^2,4]octane-6-carboxamide] | 0
3 | 25 | O=C(Nc1ccc(Cl)c(Cl)c1)[C@H]1[C@@H]2O[C@@H]([C@H]3C[C@H]32)[C@@H]1c1ccnc(F)c1F (single isomer, unassigned) [Example 122a] | 160
4 | 21 | COc1cc([C@H]2[C@H]3O[C@H](C[C@@H]3O)[C@@H]2C(=O)Nc2ccc(Cl)c(Cl)c2)ccn1 (racemic) [Example 139, rac-(1R,2R,3S,4R,5S)—N-(3,4-dichlorophenyl)-5-hydroxy-3-(2-methoxypyridin-4-yl)-7-oxabicyclo[2.2.1]heptane-2-carboxamide] | 223
5 | > 50 | Cc1cc([C@H]2[C@H]3O[C@H](C[C@@H]3O)[C@@H]2C(=O)Nc2ccc(-c3ccccc3F)c(Cl)c2)ccn1 [Example 78, (1R,2R,3S,4R,5S)—N-(2-chloro-2′-fluoro-[1,1′-biphenyl]-4-yl)-5-hydroxy-3-(2-methylpyridin-4-yl)-7-oxabicyclo[2.2.1]heptane-2-carboxamide] | 70
6 | 10 | O=C(Nc1cccc(C(F)(F)F)c1)[C@H]1[C@@H]2O[C@@H]([C@H]3C[C@H]32)[C@@H]1c1cncnc1 [Example 130, (1S,2S,4R,5R,6R,7S)-7-(pyrimidin-5-yl)-N-(3-(trifluoromethyl)phenyl)-8-oxatricyclo[3.2.1.0^2,4]octane-6-carboxamide] | 237
7 | > 50 | O=C(Nc1cccc(C(F)(F)F)c1)[C@@H]1[C@@H]2O[C@@H](C[C@H]2O)[C@@H]1c1ccncc1 [Example 12, (1S,2S,3S,4S,6R)-6-hydroxy-3-(pyridin-4-yl)-N-[3-(trifluoromethyl)phenyl]-7-oxabicyclo[2.2.1]heptane-2-carboxamide] | 22
8 | > 50 | COc1ccc(NC(=O)[C@@H]2[C@@H]3O[C@@H]([C@H]4C[C@H]43)[C@@H]2c2ccnc(F)c2F)cn1 [Example 34, (1S,2S,4R,5R,6S,7S)-7-(2,3-difluoropyridin-4-yl)-N-(6-methoxypyridin-3-yl)-8-oxatricyclo[3.2.1.0^2,4]octane-6-carboxamide] | 3
9 | 21 | Cc1ccc([C@H]2[C@H]3O[C@H](C[C@H]3F)[C@H]2C(=O)Nc2ccc(Cl)c(Cl)c2)cn1 [Example 64, (1R,2S,3S,4R,5R)—N-(3,4-dichlorophenyl)-5-fluoro-3-(6-methylpyridin-3-yl)-7-oxabicyclo[2.2.1]heptane-2-carboxamide] | 253
10 | 6.9 | CN[C@@H]1C[C@H]2O[C@@H]1[C@H](c1ccnc(C)c1)[C@H]2C(=O)Nc1ccc(Cl)c(Cl)c1 [Example 167, (1R,2R,3S,4R,5R)—N-(3,4-dichlorophenyl)-5-(methylamino)-3-(2-methylpyridin-4-yl)-7-oxabicyclo[2.2.1]heptane-2-carboxamide] | 83
11 | > 50 | Cc1nccc([C@H]2[C@H]3O[C@H](C[C@@H]3O)[C@@H]2C(=O)Nc2ccc(Cl)c(Cl)c2)n1 [Example 82, (1R,2R,3S,4R,5S)—N-(3,4-dichlorophenyl)-5-hydroxy-3-(2-methylpyrimidin-4-yl)-7-oxabicyclo[2.2.1]heptane-2-carboxamide] | 74
12 | > 50 | O=C(Nc1ccc(Cl)c(Cl)c1)[C@H]1[C@@H](c2cc(F)ncc2F)[C@H]2O[C@@H]1C[C@@H]2O [Example 58, (1R,2S,3S,4R,5S)—N-(3,4-dichlorophenyl)-3-(2,5-difluoropyridin-4-yl)-5-hydroxy-7-oxabicyclo[2.2.1]heptane-2-carboxamide] | 0
13 | 28 | O=C(Nc1ccc(Cl)c(Cl)c1)[C@@H]1[C@@H](c2ccnc(F)c2)[C@H]2O[C@@H]1C[C@@H]2O (racemic) [Example 142, rac-(1R,2R,3S,4R,5S)—N-(3,4-dichlorophenyl)-3-(2-fluoropyridin-4-yl)-5-hydroxy-7-oxabicyclo[2.2.1]heptane-2-carboxamide] | 142
14 | 0.3 | COc1ccc(NC(=O)[C@@H]2[C@@H]3O[C@@H]([C@H]4C[C@H]43)[C@@H]2c2ccc(C)nc2)cn1 (racemic) [Example 2, rac-(1S,2S,4R,5R,6S,7S)—N-(6-methoxypyridin-3-yl)-7-(6-methylpyridin-3-yl)-8-oxatricyclo[3.2.1.0^2,4]octane-6-carboxamide] | 45
15 | > 50 | Nc1cc([C@H]2[C@H]3O[C@H](C[C@@H]3O)[C@H]2C(=O)Nc2ccc(Cl)c(Cl)c2)ccn1 [Example 57, (1R,2S,3S,4R,5S)-3-(2-aminopyridin-4-yl)-N-(3,4-dichlorophenyl)-5-hydroxy-7-oxabicyclo[2.2.1]heptane-2-carboxamide] | 56
16 | 11 | COc1cc([C@H]2[C@H]3O[C@H](C[C@@H]3O)[C@H]2C(=O)Nc2ccc(Cl)c(Cl)c2)ccn1 (racemic) [Example 49, rac-(1R,2S,3S,4R,5S)—N-(3,4-dichlorophenyl)-5-hydroxy-3-(2-methoxypyridin-4-yl)-7-oxabicyclo[2.2.1]heptane-2-carboxamide] | 77
17 | 14 | Cc1cc([C@H]2[C@H]3O[C@H](C[C@H]3F)[C@@H]2C(=O)Nc2cccc(C(F)(F)F)c2)ccn1 [Example 96, (1R,2R,3S,4R,5R)-5-fluoro-3-(2-methylpyridin-4-yl)-N-(3-(trifluoromethyl)phenyl)-7-oxabicyclo[2.2.1]heptane-2-carboxamide] | 281
18 | > 50 | Cc1cc([C@H]2[C@H](C(=O)Nc3ccc(Cl)c(Cl)c3)[C@@H]3C[C@](C)(O)[C@H]2O3)ccn1 [Example 179, (1S,2S,3R,4S,5S)—N-(3,4-dichlorophenyl)-5-hydroxy-5-methyl-3-(2-methylpyridin-4-yl)-7-oxabicyclo[2.2.1]heptane-2-carboxamide] | 22
19 | 18 | Nc1ncc([C@H]2[C@H]3O[C@H]([C@@H]4C[C@@H]43)[C@@H]2C(=O)Nc2ccc(Cl)c(Cl)c2)cn1 [Example 132, (1S,2S,4R,5R,6R,7S)-7-(2-aminopyrimidin-5-yl)-N-(3,4-dichlorophenyl)-8-oxatricyclo[3.2.1.0^2,4]octane-6-carboxamide] | 321
20 | > 50 | O=C(Nc1ccc(Cl)c(Cl)c1)[C@H]1[C@@H](c2cnc(F)nc2)[C@H]2O[C@@H]1C[C@@H]2O [Example 61, (1R,2S,3S,4R,5S)—N-(3,4-dichlorophenyl)-3-(2-fluoropyrimidin-5-yl)-5-hydroxy-7-oxabicyclo[2.2.1]heptane-2-carboxamide] | 24
21 | 27 | O=C(Nc1ccc(Cl)c(Cl)c1)[C@@H]1[C@@H](c2ccnc(F)c2)[C@H]2O[C@@H]1C[C@H]2NCCO [Example 173, (1R,2R,3S,4R,5R)—N-(3,4-dichlorophenyl)-3-(2-fluoropyridin-4-yl)-5-((2-hydroxyethyl)amino)-7-oxabicyclo[2.2.1]heptane-2-carboxamide] | 54
22 | 8.2 | COc1cc([C@H]2[C@H]3O[C@H]([C@@H]4C[C@@H]43)[C@@H]2C(=O)Nc2ccc(Cl)c(Cl)c2)ccn1 [Example 118, (1S,2S,4R,5R,6R,7S)—N-(3,4-dichlorophenyl)-7-(2-methoxypyridin-4-yl)-8-oxatricyclo[3.2.1.0^2,4]octane-6-carboxamide] | 118
23 | > 50 | Cc1cc([C@H]2[C@H]3O[C@H](C[C@@H]3O)[C@@H]2C(=O)Nc2cccc(C(F)(F)F)c2)ccn1 [Example 85, (1R,2R,3S,4R,5S)-5-hydroxy-3-(2-methylpyridin-4-yl)-N-(3-(trifluoromethyl)phenyl)-7-oxabicyclo[2.2.1]heptane-2-carboxamide] | 56
24 | 18 | Cc1cc([C@H]2[C@H]3O[C@H](C[C@H]3F)[C@@H]2C(=O)Nc2cccc(OC(F)(F)F)c2)ccn1 [Example 99, (1R,2R,3S,4R,5R)-5-fluoro-3-(2-methylpyridin-4-yl)-N-(3-(trifluoromethoxy)phenyl)-7-oxabicyclo[2.2.1]heptane-2-carboxamide] | 383
25 | 21 | Cc1cc([C@H]2[C@H]3O[C@H](C[C@@H]3F)[C@H]2C(=O)Nc2ccc(Cl)c(Cl)c2)ccn1 [Example 16, (1R,2S,3S,4R,5S)-N-(3,4-dichlorophenyl)-5-fluoro-3-(2-methylpyridin-4-yl)-7-oxabicyclo[2.2.1]heptane-2-carboxamide] | 105
26 | 4.4 | O=C(Nc1cnc(Cl)c(Cl)c1)[C@@H]1[C@@H](c2ccnc(F)c2F)[C@H]2O[C@@H]1C[C@@H]2O [Example 91, (1R,2R,3S,4R,5S)—N-(5,6-dichloropyridin-3-yl)-3-(2,3-difluoropyridin-4-yl)-5-hydroxy-7-oxabicyclo[2.2.1]heptane-2-carboxamide] | 66
27 | > 50 | Cc1cc([C@@H]2[C@@H](C(=O)Nc3cccc(C(F)(F)F)c3)[C@@H]3O[C@H]2C[C@H]3O)ccn1 [Example 86, (1S,2R,3S,4S,6R)-6-hydroxy-3-(2-methylpyridin-4-yl)-N-(3-(trifluoromethyl)phenyl)-7-oxabicyclo[2.2.1]heptane-2-carboxamide] | 38
